Assay results reported in US5294716A, “Chemical process for making angiotesin II antagonist compounds” (Imperial Chemical Industries PLC, priority 1991, dated 1994).
Counter-ions that a name gives are not always drawn. Like-named read-outs stand apart in the source and are kept apart here.

What was measured:
[1] = system: angiotensin II-induced pressor responses; assay: Test C: in vivo antagonism of angiotensin II-induced pressor responses in terminally-anaesthetised or conscious rats; conditions: Rattus norvegicus, iv, i.v. administration
Source text: The antagonism of one or more of the physiological actions of AII and, in particular, the antagonism of the interaction of AII with the receptors which mediate its effects on a target tissue, may be assessed using one or more of the following, routine laboratory procedures: Test C: This in vivo test involves using terminally-anaesthetised or conscious rats in which an arterial catheter has been implanted under anaesthesia for the measurement of changes in blood pressure. The AII antagonistic effects of the test compound following oral or parenteral administration, are assessed against angiotensin II-induced pressor responses. To ensure that the effect is specific, the effect of the test compound on vasopressin-induced pressor responses may also be determined in the same preparation.

[2] = target: T1, AII receptors (guinea pig adrenal gland cell surface membranes) (Cavia porcellus, UniProt Q9WV26); assay: Test A: displacement of radiolabelled AII binding to cell surface membrane fraction (guinea pig adrenal gland)
T1 construct: from tissue; host or cells: guinea pig adrenal gland, cell surface membrane fraction
T1 sequence (Q9WV26 1-359): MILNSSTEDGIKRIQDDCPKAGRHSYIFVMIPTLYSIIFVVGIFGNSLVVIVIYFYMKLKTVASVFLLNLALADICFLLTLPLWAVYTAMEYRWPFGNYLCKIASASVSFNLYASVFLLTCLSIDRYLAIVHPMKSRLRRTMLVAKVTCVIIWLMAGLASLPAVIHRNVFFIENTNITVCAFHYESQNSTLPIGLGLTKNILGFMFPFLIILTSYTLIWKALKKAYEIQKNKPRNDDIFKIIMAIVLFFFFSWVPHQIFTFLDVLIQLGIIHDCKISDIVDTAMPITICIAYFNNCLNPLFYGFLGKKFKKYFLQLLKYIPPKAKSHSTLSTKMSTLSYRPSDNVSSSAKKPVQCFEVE
Method: The antagonism of one or more of the physiological actions of AII and, in particular, the antagonism of the interaction of AII with the receptors which mediate its effects on a target tissue, may be assessed using one or more of the following, routine laboratory procedures: Test A: This in vitro procedure involves the incubation of the test compound initially at a concentration of 100 micromolar (or less) in a buffered mixture containing fixed concentrations of radiolabelled AII and a cell surface membrane fraction prepared from a suitable angiotensin target tissue. In this test, the source of cell surface membranes is the guinea pig adrenal gland which is well known to respond to AII. Interaction of the radiolabelled AII with its receptors (assessed as radiolabel bound to the particulate membrane fraction following removal of unbound radiolabel by a rapid filtration procedure such as is standard in such studies) is antagonized by compounds which also bind to the membrane receptor sites and the degree of antagonism (observed in the test as displacement of membrane-bound radioactivity) is determined readily by comparing the receptor-bound radioactivity in the presence of the test compound at the specified test concentration with a control value determined in the absence of the test compound. […]

IC50 ([2]; average, read-out: IC50 (concentration for 50% displacement of radiolabelled AII binding), average) [nM] | IC50 ([2]; read-out: IC50 (concentration for 50% displacement of radiolabelled AII binding)) [nM] | Structure (SMILES) | ED50 [1] [mg/kg]
17 | – | Cc1cc(OCc2ccc(-c3ccccc3-c3nnn[nH]3)cc2)c2ccccc2n1.Cl [2-methyl-4-[(2'-(1H-tetrazol-5-yl)biphenyl-4-yl)methoxy]quinoline hydrochloride] | 0.5
– | 30 | Cc1cc(OCc2ccc(-c3ccccc3-c3nn[nH]n3)cc2)c2c(n1)CCCC2 [2-methyl-5,6,7,8-tetrahydro-4-[(2'-(1H-tetrazol-5-yl)methoxy]quinoline hydrochloride] | 0.28
